Marks after values point to notes of the source that are not given here.
Columns and labels:
[1] = system: scopolamine-treated mice; conditions: s.c., passive avoidance, cited from earlier work; for Amnesia reversal, %: at the lowest significant dose
[2] = system: paclitaxel-treated rats; assay: Paclitaxel-induced peripheral sensory neuropathy model, hyperalgesia (paw pressure) after i.v. administration; assay type: in vivo, rat
Source text: (§1) Results are expressed as the minimum dose (via the indicated route) at which a statistically-significant difference is observed when compared to time-matched injured rats receiving a vehicle administration by the same route. An analysis of variance, ANOVA, followed by Fisher's protected least significant difference procedure for post hoc comparison, was used to verify significance between two means of hyperalgesic behavioral results from the Randall & Selitto apparatus paw pressure test (“anti-hyperalgesia”) or from the Von Frey test (“mechanical allodynia”) or from the Cold Plate test (“cold allodynia”). P values 0.05 were considered significant. This definition applies to any doses specified herein as inhibiting “in a statistically significant manner”.
(§2) Paw mechanical sensitivity was determined using a Randall & Selitto apparatus (Randall and Selitto, 1957) exerting a force that increases at constant rate (32 g/s). The stimulus causing paw withdrawal was evaluated before and at different times after treatment. Results represent the mean of mechanical thresholds for paw withdrawal expressed as grams. To avoid possible damage to the rat paw the maximum applied force was set at 240 g. In the single administration protocol, paw pressure tests were performed before (pre-dose) and at regular intervals after treatment.
Paclitaxel (2 mg/kg i.p.) was administered on days 1, 3, 5 and 8. Test compounds were dissolved in saline and administered intravenously at the dose of 1 mg/kg to adult male Sprague-Dawley rats (Charles River, Italy, 220-250 g weight). Data were obtained at 0-75 minutes after injection and are expressed as the mean±s.e.m. of six animals. *P<0.05 and **<0.01 vs vehicle+paclitaxel treated rats; °P<0.05 and ^°°P<0.01 vs. NT24336 (R) treated group. […] *P<0.05 and **<0.01 vss vehicle+paclitaxel treated rats.

[3] = system: MIA-treated rats; assay: MIA-induced knee osteoarthritis model, mechanical hyperalgesia after i.v. administration; assay type: in vivo, rat
Source text: as §1, §2
A single intra-articular injection of sodium monoiodoacetate (MIA) was introduced into the knee joint of rats according to the method described by Fernihough J et al., 2004. Sodium monoiodoacetate (MIA) inhibits chondrocyte metabolism leading to cartilage degradation in form of osteoarthritic-like focal lesions in the cartilage associated with subchondral bone thickening 14 days after administration (Guingamp et al., 1997). This model therefore can easily and quickly reproduce osteoarthritic-like lesions and functional impairment in rats, similar to that observed in human disease (Guzman et al., 2003). After 7 days post-injection, the inflammatory component subsides and the remaining pain is considered neuropathic in nature. Briefly, rats were deeply anaesthetized with diethyl ether. Following abolition of the hind paw pinch withdrawal reflex, a 27-gauge needle was introduced into the joint cavity between the tibial plateau and femoral condyles. Once in place, 2 mg of MIA were diluted in a volume of […] of 1% CMC (carboxymethylcellulose in water, Sigma-Aldrich, Italy) and injected into one knee joint and the rat was allowed to recover for 14 days prior to pain assessment.

[4] = system: CCI rats; assay: Chronic constriction injury (CCI) model, mechanical allodynia after oral administration; assay type: in vivo, rat; conditions: p.o.
Source text: as §1
Each animal was placed in a chamber with a mesh metal floor covered by a plastic dome that enabled the animal to walk freely, but not to jump. The mechanical stimulus was then delivered in the mid-plantar skin of left hind paw using an electronic von Frey apparatus (37400 Dynamic Plantar Aesthesiometer, Ugo Basile, Comerio, Varese, Italy). The cut-off was set at 50 g, while the increasing force rate (ramp duration) was set at 20 s. In the single administration protocol, pain threshold measurements have been performed before (pre-dose) and at regular intervals after treatment. In the repeated treatment protocol, the pre-test value was measured 13 h after the last administration; afterward the animals received a new administration and measures were performed at the described times. Results are expressed in […] and represent the mean±S.E.M. of mechanical thresholds.
To evaluate the effect of test compounds in comparison to vehicle or selected comparators on mechanical hyperalgesia, the chronic constriction injury models in rats, a widely accepted model of painful neuropathy (Wang and Wang, 2003) was chosen.
Neuropathy was induced according to the procedure described by Bennett and Xie ([…]). Briefly, rats were anaesthetized with chloral hydrate 400 mg/kg i.p. under aseptic conditions, the right common sciatic nerve was exposed at the level of the middle thigh by blunt dissection. Proximal to the trifurcation, the nerve was carefully freed from the surrounding connective tissue and four chromic cat gut ligatures (4-0, Ethicon, Norderstedt, Germany) were tied loosely around it with about 1 mm spacing. After hemostasis was confirmed, the incision was closed in layers. Then animals were allowed to recover from anesthesia and surgery and were kept one per cage with free access to water and standard laboratory chow. This procedure induces the appearance of hyperalgesia and allodynia in response to mechanical stimuli, which are evident 2-5 days after injury and reach their maximum severity in about 14 days.

[5] = system: streptozotocin-treated mice; assay: Streptozotocin diabetic peripheral neuropathy model, thermal hyperalgesia after oral administration; assay type: in vivo, mouse; conditions: p.o.
Source text: as §1
Mice (=30 g) were injected intravenously in the tail with 200 mg/kg streptozotocin (Wako Pure Chemicals, Richmond, Va.) prepared in saline adjusted to pH 4.5 in 0.1 N citrate buffer. Age-matched non-diabetic control mice were injected with the vehicle alone. Streptozotocin solutions were freshly prepared due to the limited stability of the compound. Animals were kept in a group of four per cage with special care of food and water supplement. The bed of the cage was changed every day. […] The serum glucose level was measured by glucose oxidase method from blood samples obtained by tail vein pricking. […] Animals at 7 days post-streptozotocin treatment were used in the study. […] Injections were performed using a Hamilton microliter syringe fitted with a 26-gauge needle, according to the method of Haley and McCormick (1957). The site of injection was 2 mm caudal and 2 lateral to the bregma, and 3 mm in depth from the skull surface. The injection volume was 5 μl.

[6] = system: vincristine-treated rats; assay: Vincristine-induced peripheral sensory neuropathy model, hyperalgesia after oral administration; assay type: in vivo, rat; conditions: p.o.
Source text: as §1, §2

[7] = system: oxaliplatin-treated rats; assay: Oxaliplatin-induced peripheral sensory neuropathy model, hyperalgesia after oral administration; assay type: in vivo, rat; conditions: p.o.
Source text: as §1, §2
Peripheral sensory neuropathy was induced in adult rats, by administration of oxaliplatin (Tocris) at […] i.p. in saline once daily for 5 consecutive days every week for three weeks (cumulative dose 36 mg/kg) according to Cavaletti et al., 2001. Starting from day 21 after the first oxaliplatin administration, the effect of repeated oral administration of racemic unifiram or the preferred inventive composition with an enantiomeric excess of (R)-unifiram of 50% corresponding to a 3:1 (R):(S) ratio of the enantiomers on oxaliplatin-induced mechanical hyperalgesia was assessed.

Row | Compound | Amnesia reversal, % [1] | Lowest Dose at which scopolamine-induced amnesia is reversed in a statistically significant manner (P < 0.01) [1] | Lowest dose at which paclitaxel-induced hyperalgesia is inhibited in a statistically significant manner (P < 0.05) ([2]; 15 min after administration) | Lowest dose at which paclitaxel-induced hyperalgesia is inhibited in a statistically significant manner (P < 0.05) ([2]; 30 min after administration) | Lowest dose at which paclitaxel-induced hyperalgesia is inhibited in a statistically significant manner (P < 0.05) ([2]; 45 min after administration) | Lowest dose at which streptozotocin-induced diabetese-like thermal hyperalgesia is inhibited in a statistically significant manner (P < 0.05) ([5]; 30 min after administration) | Lowest dose at which streptozotocin-induced diabetese-like thermal hyperalgesia is inhibited in a statistically significant manner (P < 0.05) ([5]; 60 min after administration) | Lowest dose at which streptozotocin-induced diabetese-like thermal hyperalgesia is inhibited in a statistically significant manner (P < 0.05) ([5]; 90 min after administration) | other results
1 | O=C1CCC2CN(S(=O)(=O)c3ccc(F)cc3)CCN12 (centres unmarked) [NT-24266, 2-(4-fluorophenyl)sulfonyl-hexahydropyrrolo[1,2-a]pyrazin-6(2H)-one] | 75% | 0.001 mg/kg | 1 mg/kg | 3 mg/kg | >10 mg/kg | – | – | – | –
2 | O=C1CCC2CN(S(=O)(=O)c3cccc(F)c3)CCN12 (centres unmarked) [NT-24782, 2-(3-fluorophenyl)sulfonyl-hexahydropyrrolo[1,2-a]pyrazin-6(2H)-one] | – | – | >3 mg/kg | >3 mg/kg | >3 mg/kg | – | – | – | –
3 | O=C1CCC2CN(S(=O)(=O)c3cccc(F)c3)CCN12 (centres unmarked) [NT-24337, 2-(3-fluorophenyl)sulfonyl-hexahydropyrrolo[1,2-a]pyrazin-6(2H)-one] | – | – | 3 mg/kg | 3 mg/kg | 3 mg/kg | 10 mg/kg | 10 mg/kg | 10 mg/kg | Lowest dose at which MIA-induced mechanical hyperalgesia is inhibited in a statistically significant manner (P < 0.05) ([3]; 15 min after administration): 3 mg/kg; Lowest dose at which MIA-induced mechanical hyperalgesia is inhibited in a statistically significant manner (P < 0.05) ([3]; 30 min after administration): 3 mg/kg; Lowest dose at which MIA-induced mechanical hyperalgesia is inhibited in a statistically significant manner (P < 0.05) ([3]; 45 min after administration): 3 mg/kg; Lowest dose at which CCI-induced mechanical allodynia is inhibited in a statistically significant manner (P < 0.05) ([4]; 30 min after administration): 1 mg/kg; Lowest dose at which CCI-induced mechanical allodynia is inhibited in a statistically significant manner (P < 0.05) ([4]; 60 min after administration): 1 mg/kg; Lowest dose at which CCI-induced mechanical allodynia is inhibited in a statistically significant manner (P < 0.05) ([4]; 90 min after administration): 3 mg/kg
4 | CNCC[C@H](Oc1cccc2ccccc12)c1cccs1 [Duloxetine, reference compound] | – | – | – | – | – | 30 mg/kg | 30 mg/kg | 30 mg/kg | Lowest dose at which streptozotocin-induced diabetese-like thermal hyperalgesia is inhibited in a statistically significant manner (P < 0.05) ([5]; 120 min after administration): 30 mg/kg
5 | O=C1CCC2CN(S(=O)(=O)c3ccc(F)cc3)CCN12 (centres unmarked) [NT-24234, 2-(4-fluorophenyl)sulfonyl-hexahydropyrrolo[1,2-a]pyrazin-6(2H)-one] | 78% | 0.003 mg/kg | 1 mg/kg | 3 mg/kg | >10 mg/kg | – | – | – | –
6 | O=C1CC[C@@H]2CN(S(=O)(=O)c3ccccc3F)CCN12 [NT-24336, 2-(2-fluorobenzenesulfonyl)hexahydropyrrolo[1,2-a]pyrazin-6-one] | – | – | 3 mg/kg | 3 mg/kg | 3 mg/kg | 30 mg/kg | 30 mg/kg | 30 mg/kg | Lowest dose at which MIA-induced mechanical hyperalgesia is inhibited in a statistically significant manner (P < 0.05) ([3]; 15 min after administration): 3 mg/kg; Lowest dose at which MIA-induced mechanical hyperalgesia is inhibited in a statistically significant manner (P < 0.05) ([3]; 30 min after administration): 3 mg/kg; Lowest dose at which MIA-induced mechanical hyperalgesia is inhibited in a statistically significant manner (P < 0.05) ([3]; 45 min after administration): 3 mg/kg; Lowest dose at which vincristine-induced hyperalgesia is inhibited in a statistically significant manner (P < 0.05) ([6]; 30 min after administration): 10 mg/kg; Lowest dose at which vincristine-induced hyperalgesia is inhibited in a statistically significant manner (P < 0.05) ([6]; 60 min after administration): 10 mg/kg; Lowest dose at which vincristine-induced hyperalgesia is inhibited in a statistically significant manner (P < 0.05) ([6]; 90 min after administration): 10 mg/kg; Lowest dose at which vincristine-induced hyperalgesia is inhibited in a statistically significant manner (P < 0.05) ([6]; 120 min after administration): >10 mg/kg; Lowest dose at which CCI-induced mechanical allodynia is inhibited in a statistically significant manner (P < 0.05) ([4]; 30 min after administration): 1 mg/kg; Lowest dose at which CCI-induced mechanical allodynia is inhibited in a statistically significant manner (P < 0.05) ([4]; 60 min after administration): 3 mg/kg; Lowest dose at which CCI-induced mechanical allodynia is inhibited in a statistically significant manner (P < 0.05) ([4]; 90 min after administration): 3 mg/kg; Lowest dose at which streptozotocin-induced diabetese-like thermal hyperalgesia is inhibited in a statistically significant manner (P < 0.05) ([5]; 120 min after administration): 30 mg/kg; Lowest dose at which oxaliplatin-induced hyperalgesia is inhibited in a statistically significant manner (P < 0.05) ([7]; 30 min after administration): 1 mg/kg; Lowest dose at which oxaliplatin-induced hyperalgesia is inhibited in a statistically significant manner (P < 0.05) ([7]; 60 min after administration): 1 mg/kg; Lowest dose at which oxaliplatin-induced hyperalgesia is inhibited in a statistically significant manner (P < 0.05) ([7]; 90 min after administration): 1 mg/kg; Lowest dose at which oxaliplatin-induced hyperalgesia is inhibited in a statistically significant manner (P < 0.05) ([7]; 120 min after administration): >10 mg/kg
7 | O=C1CCC2CN(S(=O)(=O)c3ccc(F)cc3)CCN12 (racemic) [NT-24617, (RS)-2-[(4-fluorophenyl)sulfonyl]hexahydropyrrolo[1,2-a]pyrazin-6-one] | 100% | 0.001 mg/kg | 3* mg/kg | 3 mg/kg | 3 mg/kg | – | – | – | Lowest dose at which paclitaxel-induced hyperalgesia is inhibited in a statistically significant manner (P < 0.05) ([2]; 60 min after administration): >3 mg/kg

From patent publication US20220047587A1, “SYNERGISTIC COMPOSITIONS COMPRISING R-2-(SUBSTITUTED-SULFONYL)-HEXAHYDRO-PYRROLO[1,2-A]PYRAZIN-6(2H)-ONES AND S-2-(SUBSTITUTED-SULFONYL)-HEXAHYDRO-PYRROLO[1,2-A]PYRAZIN-6(2H)-ONES IN A NON-RACEMIC RATIO” (Metys Pharmaceuticals AG, priority 2018, published 2022)
